Source: ChEMBL document CHEMBL1201862, “PubChem BioAssay data set” (2004)
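Values below derive from 48-hour exposures of cells grown in 96-well plates, with endpoints linearly interpolated between the two concentrations bracketing the appropriate inhibition level. The concentration for 50% growth inhibition is given as GI50.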 Activity calls are given as the source filed them. No stated cut-off is given here; in the data, active = GI50 up to about 1.1 µM and inactive = higher.

What was measured:
Assay in all cases: NCI tumour cell line growth inhibition, 48 h
[1] = system: CCRF-CEM
[2] = system: LOX IMVI
[3] = system: MDA-N
[4] = system: K562
[5] = system: NCI/ADR-RES
[6] = system: HT-29
[7] = system: SK-OV-3
[8] = system: SNB-75
[9] = system: IGROV-1
[10] = system: MOLT-4
[11] = system: OVCAR-3
[12] = system: UACC-257
[13] = system: EKVX
[14] = system: COLO 205
[15] = system: HCT-116
[16] = system: Malme-3M
[17] = system: RPMI-8226
[18] = system: SF-268
[19] = system: OVCAR-4
[20] = system: SF-295

Measured: GI50

Cc1ccc(/N=N/c2ccc(O)c(CN(C)C)c2)cc1C
inactive: [1] 24 µM | [2] 10.5 µM | [3] 38.9 µM | [4] 13.9 µM | [5] 16 µM | [6] 18.4 µM | [7] 45 µM | [8] 21.9 µM | [9] 21.3 µM | [10] 16.6 µM | [11] 15.6 µM | [12] 23.1 µM | [13] 20.6 µM | [14] 11.9 µM | [15] 36.3 µM | [16] 19.1 µM | [17] 26.5 µM | [18] 27.9 µM | [19] 43.4 µM | [20] 40.7 µM

COc1ccc(Cc2nc3cc(Cl)ccc3o2)cc1
inactive: [1] 12.2 µM | [2] 23.5 µM | [3] 35 µM | [4] 34.4 µM | [5] 24.2 µM | [6] 30.1 µM | [7] 47.3 µM | [8] 13.1 µM | [9] 63 µM | [10] 18.8 µM | [11] 27 µM | [12] 24 µM | [13] 27.2 µM | [14] 28.4 µM | [15] 36.5 µM | [16] 26.7 µM | [17] 21.3 µM | [18] 45.4 µM | [19] 18.8 µM | [20] 31.3 µM

O=C1NC(=O)C2=C1CCC2O (stereo not given)
inactive: [1] > 100 µM | [2] > 100 µM | [3] > 100 µM | [4] > 100 µM | [5] > 100 µM | [6] > 100 µM | [7] > 100 µM | [8] > 100 µM | [9] > 100 µM | [10] > 100 µM | [11] > 100 µM | [12] > 100 µM | [13] > 100 µM | [14] > 100 µM | [15] > 100 µM | [16] > 100 µM | [17] > 100 µM | [18] > 100 µM | [19] > 100 µM | [20] > 100 µM
